These results are taken from article PMC3510254 (PLoS Pathogens, 2012).

Where no end group is shown, it is not given here.

In data set [1] the test system is proteasome. In words: Proteasome inhibition of endogenous antigen processing in vHCV 827-infected B-LCLs, IFN-γ read-out of CTL lines. Type of data set: cell-based, human.
Data set [2] has as its system immunoproteasome (20S). The data set is described as follows: purified immunoproteasome in digestion buffer (20 mM HEPES-NaOH pH 7.6, 2 mM MgAc2, 0.5 mM DTT). The settings on record: human, up to 6 hours.
For data set [3], the system named is constitutive proteasome (20S). In words: purified constitutive proteasome in digestion buffer (20 mM HEPES-NaOH pH 7.6, 2 mM MgAc2, 0.5 mM DTT). The note with it: human, up to 6 hours.
The subject of data set [4] is immunoproteasome (20S). In words: purified immunoproteasome, 4 µg in the degradation experiment, in digestion buffer. The note with it: human, up to 6 hours.
Data set [5] concerns constitutive proteasome (20S). The data set is described as follows: purified constitutive proteasome, 4 µg in the degradation experiment, in digestion buffer. The note with it: human, up to 6 hours.
Data set [6] concerns the target T1, immunoproteasome (Homo sapiens, UniProt P28062+P28065+P40306).
T1 construct: Constitutive and immuno-20S proteasomes were purified from LCL721.174 and LCL721 human EBV-transformed B cell lines; endogenous in cells; host or cells: LCL721 human EBV-transformed B cell line
The data set is described as follows: In vitro proteasomal peptide digest with mass spectrometry. Type of data set: in vitro ADME. The note with it: 25-mer precursor, 1, 2, 4 and 6 hours; 2 µg or 4 µg proteasome; extracted ion chromatograms; Fig 6; triplicate.

Consider `CC[C@H](C)[C@H](NC(=O)[C@H]([C@@H](C)CC)N(C)C(C)=O)C(=O)N[C@H](C(=O)N[C@@H](CC(C)C)C(=O)[C@@]1(C)CO1)[C@@H](C)O` [epoxomicin], for which, in data set [1], the “effect on induction of epitope-specific IFN-γ production and number of responding CD8+ T cells” value is “delay the induction of epitope-specific IFN-γ production and considerably decrease the number of responding CD8+ T cells”.

Take `CC(=O)N[C@@H](CSC(=O)[C@]1([C@@H](O)C(C)C)NC(=O)[C@H](C)[C@@H]1O)C(=O)O` [lactacystin]: in data set [1], the “reductions in the number of responding CD8+ T cells” value was 30–70%.

With AQTFLATCINGVCWTVYHGAGTRT, the fragment found result in data set [2] and in data set [3] was “CINGVCWTV” each time.

VRVCEKMARMILMTHFPLAVMGSSY: the fragment found result in data set [4] and in data set [5] was “ARMILMTHF” throughout.

Take VRVCEKMARMILMTHFPLAVMGSSY [B27-in-A2]: the “precursor degradation rate relative to A2-in-A2 peptide, immunoproteasomal digestion” value in data set [6] was “degraded slightly more slowly than the A2-in-A2 peptide”.
